According to patent US6930131B2, “Aryl substituted 3-ethoxy phenyl trifluoromethane sulfonamides for the treatment of non-insulin dependent diabetes mellitus (NIDDM)” (Wyeth, priority 2002, dated 2005):

COc1ccc(-c2ccc(COCCc3cccc(NS(=O)(=O)C(F)(F)F)c3)cc2)cc1 [Example 4, C,C,C-Trifluoro-N-{3-[2-(4′-methoxy-biphenyl-4-ylmethoxy)-ethyl]-phenyl}-methanesulfonamide]
melting point: 96 to 98 °C

O=S(=O)(Nc1cccc(CCOCc2ccc(-c3cccc(Cl)c3)cc2)c1)C(F)(F)F [Example 5, N-{3-[2-(3′-Chloro-biphenyl-4-ylmethoxy)-ethyl]-phenyl}-C,C,C-trifluoromethane sulfonamide]
melting point: 105 to 107 °C

O=S(=O)(Nc1cccc(CCOCc2ccc(-c3ccccn3)cc2)c1)C(F)(F)F [Example 8, C,C,C-Trifluoro-N-{3-[2-(4-pyridin-2-yl-benzyloxy)-ethyl]-phenyl}-methane sulfonamide]
melting point: 95 to 96 °C

O=S(=O)(Nc1cccc(CCOCc2ccc(-c3ccc(F)cc3)cc2F)c1)C(F)(F)F [Example 10, N-{3-[2-(3,4′-Difluoro-biphenyl-4-ylmethoxy)-ethyl]-phenyl}-C,C,C-trifluoro-methanesulfonamide]
melting point: 65 to 67 °C

O=S(=O)(Nc1cccc(CCOCc2ccc(-c3ccc(C(F)(F)F)cc3)cc2F)c1)C(F)(F)F [Example 14, C,C,C-Trifluoro-N-{3-[2-(3-fluoro-4′-trifluoromethyl-biphenyl-4-yl-methoxy)-ethyl]-phenyl}-methanesulfonamide]
melting point: 121 to 122 °C

O=S(=O)(Nc1cccc(CCOCc2ccc(-c3ccc(Cl)cc3Cl)cc2F)c1)C(F)(F)F [Example 15, N-{3-[2-(2′,4′-Dichloro-3-fluoro-biphenyl-4-ylmethoxy)-ethyl]-phenyl}-C,C,C-trifluoro-methanesulfonamide]
melting point: 65 to 66 °C

Cc1cccc(-c2ccc(COCCc3cccc(NS(=O)(=O)C(F)(F)F)c3)c(F)c2)c1 [Example 16, C,C,C-Trifluoro-N-{3-[2-(3-fluoro-3′-methyl-biphenyl-4-yl-methoxy)-ethyl]-phenyl}-methanesulfonamide]
melting point: 60 to 61 °C

O=S(=O)(Nc1cccc(CCOCc2ccc(-c3cccc(C(F)(F)F)c3)cc2F)c1)C(F)(F)F [Example 17, C,C,C-Trifluoro-N-{3-[2-(3-fluoro-3′-trifluoromethyl-biphenyl-4-yl-methoxy)-ethyl]-phenyl}-methanesulfonamide]
melting point: 60 to 61 °C

O=S(=O)(Nc1cccc(CCOCc2ccc(-c3ccc(OC(F)(F)F)cc3)cc2F)c1)C(F)(F)F [Example 18, C,C,C-Trifluoro-N-{3-[2-(3-fluoro-4′-trifluoromethoxy-biphenyl-4-yl-methoxy)-ethyl]-phenyl}-methanesulfonamide]
melting point: 114 to 115 °C

COc1cccc(-c2ccc(COCCc3cccc(NS(=O)(=O)C(F)(F)F)c3)c(F)c2)c1 [Example 20, C,C,C-Trifluoro-N-{3-[2-(3-fluoro-3′-methoxy-biphenyl-4-yl-methoxy)ethyl]-phenyl}-methanesulfonamide]
melting point: 80 to 82 °C

O=S(=O)(Nc1ccc(CCOCc2ccccc2-c2ccccc2)cc1)C(F)(F)F [Example 27, N-{4-[2-(Biphenyl-2-ylmethoxy)-ethyl]-phenyl}-C,C,C-trifluoromethanesulfonamide]
melting point: 79 to 81 °C

COc1ccc(-c2cccc(COCCc3cccc(NS(=O)(=O)C(F)(F)F)c3)c2)cc1 [Example 28, C,C,C-Trifluoro-N-{3-[2-(4′-methoxy-biphenyl-3-ylmethoxy)-ethyl]-phenyl}-methanesulfonamide]
melting point: 88 to 90 °C

O=S(=O)(Nc1cccc(CCOCc2cc(-c3ccc(F)cc3)ccc2Cl)c1)C(F)(F)F [Example 29, N-{3-[2-(4-Chloro-4′-fluoro-biphenyl-3-ylmethoxy)-ethyl]-phenyl)-C,C,C-trifluoro-methanesulfonamide]
melting point: 80 to 82 °C

COc1ccc(-c2ccc(F)cc2)cc1COCCc1cccc(NS(=O)(=O)C(F)(F)F)c1 [Example 30, N-{3-[2-(4′-Fluoro-4-methoxy-biphenyl-3-ylmethoxy)-ethyl]-phenyl)-C,C,C-trifluoro-methanesulfonamide]
melting point: 55 to 57 °C

COc1ccc(-c2ccc(COCCc3cccc(NS(=O)(=O)C(F)(F)F)c3)c(F)c2)cc1 [Example 32, N-{3-[2-(3-fluoro-4′-methoxy-biphenyl-4-ylmethoxy)-ethyl]-phenyl)-C,C,C-trifluoromethanesulfonamide]
melting point: 82 to 84 °C

Cc1c(COCc2cccc(-c3nn[nH]n3)c2)cccc1-c1ccccc1 [Example 33, 5-[3-(2-Methyl-biphenyl-3-ylmethoxymethyl)-phenyl]-2H-tetrazole]
melting point: 112 to 114 °C

O=S(=O)(Nc1cccc(CCOCc2cccc(-c3cc(Cl)cc(Cl)c3)c2)c1)C(F)(F)F [Example 34, N-{3-[2-(3′,5′-Dichloro-biphenyl-3-ylmethoxy)-ethyl]-phenyl)-C,C,C-trifluoro-methanesulfonamide]
melting point: 52 to 54 °C

O=S(=O)(Nc1cccc(CCOCc2ccc(-c3cc(Cl)cc(Cl)c3)cc2)c1)C(F)(F)F [Example 35, N-{3-[2-(3′,5′-Dichloro-biphenyl-4-ylmethoxy)-ethyl]-phenyl)-C,C,C-trifluoro-methanesulfonamide]
melting point: 70 to 72 °C

O=S(=O)(Nc1cccc(CCOCc2cccc(-c3ccc(F)cc3)c2)c1)C(F)(F)F [Example 36, N-{3-[2-(4′-Fluoro-biphenyl-3-ylmethoxy)-ethyl]-phenyl)-C,C,C-trifluoro-methanesulfonamide]
melting point: 48 to 50 °C

O=S(=O)(Nc1cccc(CCOCc2ccc(-c3ccc(F)cc3)cc2)c1)C(F)(F)F [Example 37, N-{3-[2-(4′-Fluoro-biphenyl-4-ylmethoxy)-ethyl]-phenyl)-C,C,C-trifluoro-methanesulfonamide]
melting point: 65 to 67 °C

NC(=O)Nc1ccc(CCOCc2ccccc2-c2ccccc2)cc1 [Example 38, {4-[2-(Biphenyl-2-ylmethoxy)-ethyl]-phenyl}-urea]
melting point: 143 to 144 °C

COc1ccc(-c2cccc(COCCc3cccc(NC(N)=O)c3)c2)cc1 [Example 39, {3-[2-(4′-Methoxy-biphenyl-3-ylmethoxy)-ethyl]-phenyl}-urea]
melting point: 87 to 89 °C

COc1ccc(-c2ccc(Cl)cc2)cc1COCCc1cccc(NS(=O)(=O)C(F)(F)F)c1 [Example 40, N-{3-[2-(4′-Chloro-4-methoxy-biphenyl-3-ylmethoxy)-ethyl]-phenyl}-C,C,C-trifluoromethanesulfonamide]
melting point: 99 to 101 °C

COc1ccc(-c2ccc(Cl)cc2)cc1COCCc1cccc(NC(N)=O)c1 [Example 41, {3-[2-(4′-Chloro-4-methoxy-biphenyl-3-ylmethoxy)-ethyl]-phenyl}-urea]
melting point: 155 °C (dec.)

O=S(=O)(Nc1cccc(CCOCc2csc(-c3ccc(C(F)(F)F)cc3)n2)c1)C(F)(F)F [Example 52, C,C,C-Trifluoro-N-(3-{2-[2-(4-trifluoromethyl-phenyl)-thiazol-4-ylmethoxy]-ethyl}-phenyl)-methanesulfonamide]
melting point: 117 to 119 °C

O=S(=O)(Nc1cccc(CCOCc2csc(-c3ccc(C(F)(F)F)cn3)n2)c1)C(F)(F)F [Example 57, C,C,C-Trifluoro-N-(3-{2-[2-(5-trifluoromethyl-pyridin-2-yl)-thiazol-4-yl-methoxy]ethyl}-phenyl)-methanesulfonamide]
melting point: 116 to 117 °C

O=S(=O)(Nc1cccc(CCOCc2csc(-c3ccccc3)n2)c1)C(F)(F)F [Example 58, C,C,C-Trifluoro-N-{3-[2-(2-phenyl-thiazol-4-ylmethoxy)-ethyl]phenyl}-methane sulfonamide]
melting point: 112 to 113 °C

COc1ccc(-c2nc(COCCc3cccc(NS(=O)(=O)C(F)(F)F)c3)cs2)cc1 [Example 59, C,C,C-Trifluoro-N-(3-{2-[2-(4-methoxy-phenyl)-thiazol-4-ylmethoxy]-ethyl}-phenyl)-methanesulfonamide]
melting point: 112 to 113 °C

O=S(=O)(Nc1cccc(CCOCc2csc(-c3ccccc3Cl)n2)c1)C(F)(F)F [Example 60, N-(3-{2-[2-(2-Chloro-phenyl)-thiazol-4-ylmethoxy]-ethyl}-phenyl)-C,C,C-trifluoro-methanesulfonamide]
melting point: 86 to 87 °C

O=S(=O)(Nc1cccc(CCOCc2csc(-c3ccc(OC(F)(F)F)cc3)n2)c1)C(F)(F)F [Example 61, C,C,C-Trifluoro-N-(3-{2-[2-(4-trifluoromethoxy-phenyl)-thiazol-4-yl-methoxy]-ethyl}-phenyl)-methanesulfonamide]
melting point: 115 to 116 °C

O=S(=O)(Nc1cccc(CCOCc2nc(-c3ccc(F)cc3)sc2Br)c1)C(F)(F)F [Example 62, N-(3-{2-[5-Bromo-2-(4-fluoro-phenyl)-thiazol-4-ylmethoxy]-ethyl}-phenyl)-C,C,C-trifluoromethanesulfonamide]
melting point: 84 to 85 °C

O=S(=O)(Nc1cccc(CCOCc2nc(-c3ccc(C(F)(F)F)cc3)sc2Cl)c1)C(F)(F)F [Example 63, N-(3-{2-[5-Chloro-2-(4-trifluoromethyl-phenyl)-thiazol-4-ylmethoxy]-ethyl}-phenyl)-C,C,C-trifluoromethanesulfonamide]
melting point: 107 to 109 °C

O=S(=O)(Nc1cccc(CCOCc2cccc(-c3ccc(F)cc3)n2)c1)C(F)(F)F [Example 64, C,C,C-Trifluoro-N-(3-{2-[6-(4-fluoro-phenyl)-pyridin-2-ylmethoxy]-ethyl}-phenyl)-methanesulfonamide]
melting point: 71 to 73 °C

O=S(=O)(Nc1cccc(CCOCc2cccc(-c3ccccc3)n2)c1)C(F)(F)F [Example 65, C,C,C-Trifluoro-N-{3-[2-(6-phenyl-pyridin-2-ylmethoxy)-ethyl]-phenyl}-methane sulfonamide]
melting point: 75 to 77 °C

O=S(=O)(Nc1cccc(CCOCc2sc3ccccc3c2Cl)c1)C(F)(F)F [Example 66, N-{3-[2-(3-Chloro-benzo[b]thiophen-2-ylmethoxy)-ethyl]-phenyl}-C,C,C-trifluoro-methanesulfonamide]
melting point: 85 to 87 °C

O=S(=O)(Nc1cccc(CCOCc2ccc(C3CCCCC3)cc2)c1)C(F)(F)F [Example 68, N-{3-[2-(4-cyclohexyl-benzyloxy)-ethyl]-phenyl}-C,C,C-trifluoro-methane sulfonamide]
melting point: 90 to 92 °C
